# Data as given in ChEMBL document CHEMBL3797199, “Anti-gout nor-oleanane triterpenoids from the leaves of Stauntonia brachyanthera” (Bioorg Med Chem Lett, 2016).
# Biological target: Xanthine dehydrogenase/oxidase (Bos taurus, UniProt P80457)
# Assay: Inhibition of bovine milk xanthine oxidase using xanthine as substrate preincubated for 15 mins followed by substrate addition by spectrophotometric method
# Chain of Xanthine dehydrogenase/oxidase (P80457 whole entry): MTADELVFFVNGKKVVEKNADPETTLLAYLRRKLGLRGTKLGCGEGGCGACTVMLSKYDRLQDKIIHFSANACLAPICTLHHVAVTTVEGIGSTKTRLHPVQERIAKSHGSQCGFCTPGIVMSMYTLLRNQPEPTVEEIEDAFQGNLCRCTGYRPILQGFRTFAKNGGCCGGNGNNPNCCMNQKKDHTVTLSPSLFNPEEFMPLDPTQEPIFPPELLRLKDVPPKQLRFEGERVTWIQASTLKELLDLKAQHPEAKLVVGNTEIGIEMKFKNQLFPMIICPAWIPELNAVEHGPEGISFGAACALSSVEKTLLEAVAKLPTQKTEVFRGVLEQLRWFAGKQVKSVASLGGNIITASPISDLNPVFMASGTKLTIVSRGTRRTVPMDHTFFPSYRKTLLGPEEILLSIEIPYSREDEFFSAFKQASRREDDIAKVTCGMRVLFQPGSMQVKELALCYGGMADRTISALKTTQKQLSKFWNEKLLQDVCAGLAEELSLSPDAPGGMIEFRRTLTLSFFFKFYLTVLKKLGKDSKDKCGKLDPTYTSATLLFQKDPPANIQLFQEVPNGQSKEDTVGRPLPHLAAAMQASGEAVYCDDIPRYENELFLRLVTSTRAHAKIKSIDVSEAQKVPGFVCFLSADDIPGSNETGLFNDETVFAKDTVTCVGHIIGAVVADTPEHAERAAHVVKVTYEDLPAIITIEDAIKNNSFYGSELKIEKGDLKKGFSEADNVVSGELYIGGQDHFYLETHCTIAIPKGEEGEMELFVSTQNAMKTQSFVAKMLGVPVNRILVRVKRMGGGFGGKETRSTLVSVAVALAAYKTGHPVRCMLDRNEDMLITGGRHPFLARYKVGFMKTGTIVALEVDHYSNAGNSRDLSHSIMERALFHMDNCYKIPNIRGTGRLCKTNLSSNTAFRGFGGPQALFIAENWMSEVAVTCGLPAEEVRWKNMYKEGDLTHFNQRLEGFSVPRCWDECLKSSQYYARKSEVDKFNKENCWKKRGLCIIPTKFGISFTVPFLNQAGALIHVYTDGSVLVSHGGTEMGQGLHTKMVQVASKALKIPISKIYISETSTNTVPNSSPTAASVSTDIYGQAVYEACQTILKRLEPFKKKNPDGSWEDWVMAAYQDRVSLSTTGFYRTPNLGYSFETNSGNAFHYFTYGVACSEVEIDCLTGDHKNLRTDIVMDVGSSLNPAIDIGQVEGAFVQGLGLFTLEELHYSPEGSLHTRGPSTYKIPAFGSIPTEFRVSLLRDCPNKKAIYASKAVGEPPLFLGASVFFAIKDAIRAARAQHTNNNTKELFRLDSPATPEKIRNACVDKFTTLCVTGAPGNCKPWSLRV
row,Structure (SMILES),IC50 [µM]
1,C[C@H]1O[C@@H](O[C@H]2[C@H](OC[C@]3(C)[C@@H]4CC[C@]5(C)[C@H](CC=C6[C@@H]7C[C@](C)(O)[C@@H](O)C[C@]7(C(=O)O)CC[C@]65C)[C@@]4(C)CC[C@@H]3O)O[C@H](CO)[C@@H](O)[C@@H]2O)[C@H](O)[C@@H](O)[C@@H]1O,0.2
2,C=C1CC[C@]2(C(=O)O[C@@H]3O[C@H](CO[C@@H]4O[C@H](CO)[C@@H](O)[C@H](O)[C@H]4O)[C@@H](O)[C@H](O)[C@H]3O)CC[C@]3(C)C(=CC[C@@H]4[C@@]5(C)CC[C@H](O[C@@H]6OC[C@H](O)[C@H](O[C@@H]7OC[C@H](O)[C@H](O)[C@H]7O)[C@H]6O)C(C)(C)[C@@H]5CC[C@]43C)[C@@H]2C1,> 100
3,C=C1CC[C@]2(C(=O)O[C@@H]3O[C@H](CO[C@@H]4O[C@H](CO)[C@@H](O[C@@H]5O[C@@H](C)[C@H](O)[C@@H](O)[C@H]5O)[C@H](O)[C@H]4O)[C@@H](O)[C@H](O)[C@H]3O)CC[C@]3(C)C(=CC[C@@H]4[C@@]5(C)CC[C@H](O[C@@H]6OC[C@H](O)[C@H](O[C@@H]7O[C@H](C(=O)O)[C@@H](O)[C@H](O)[C@H]7O)[C@H]6O)[C@@](C)(CO)[C@@H]5CC[C@]43C)[C@@H]2C1,91.3
4,C=C1CC[C@]2(C(=O)O[C@H]3O[C@@H](CO[C@H]4O[C@@H](CO)[C@H](O)[C@@H](O)[C@@H]4O)[C@H](O)[C@@H](O)[C@@H]3O)CC[C@]3(C)C(=CC[C@@H]4[C@@]5(C)CC[C@H](O[C@H]6OC[C@@H](O)[C@@H](O)[C@@H]6O[C@@H]6O[C@@H](C)[C@H](O)[C@@H](O[C@H]7OC[C@@H](O)[C@@H](O)[C@@H]7O)[C@H]6O)C(C)(C)[C@@H]5CC[C@]43C)[C@@H]2C1,> 100
5,C=C1CC[C@]2(C(=O)O[C@H]3O[C@@H](CO[C@@H]4O[C@H](CO)[C@@H](O[C@@H]5O[C@@H](C)[C@H](O)[C@@H](O)[C@H]5O)[C@H](O)[C@H]4O)[C@H](O)[C@@H](O)[C@@H]3O)CC[C@]3(C)C(=CC[C@@H]4[C@@]5(C)CC[C@H](O[C@H]6OC[C@@H](O)[C@@H](O[C@H]7OC[C@@H](O)[C@@H](O)[C@@H]7O[C@@H]7OC[C@@H](O)[C@H](O[C@H]8OC[C@@H](O)[C@@H](O)[C@@H]8O)[C@H]7O)[C@@H]6O)C(C)(C)[C@@H]5CC[C@]43C)[C@@H]2C1,> 100
6,C[C@]12CC[C@H](O)[C@](C)(CO[C@@H]3O[C@H](CO)[C@@H](O)[C@H](O)[C@H]3O)[C@@H]1CC[C@]1(C)[C@@H]2CC=C2[C@@H]3C[C@](C)(C(=O)O)[C@@H](O)C[C@]3(C(=O)O)CC[C@]21C,49.2
7,C=C1CC[C@]2(C(=O)O[C@@H]3O[C@H](CO[C@@H]4O[C@H](CO)[C@@H](O)[C@H](O)[C@H]4O)[C@@H](O)[C@H](O)[C@H]3O)CC[C@]3(C)C(=CC[C@@H]4[C@@]5(C)CC[C@H](O[C@@H]6OC[C@H](O)[C@H](O)[C@H]6O)[C@@](C)(CO)[C@@H]5CC[C@]43C)[C@@H]2C1,79.6
8,C=C1CC[C@@]2(C(=O)O[C@@H]3O[C@H](CO[C@@H]4O[C@H](CO)[C@@H](O)[C@H](O)[C@H]4O)[C@@H](O)[C@H](O)[C@H]3O)CC[C@@]3(C)C(=CC[C@H]4[C@]5(C)CC[C@@H](O[C@@H]6OC[C@H](O)[C@H](O)[C@H]6O[C@@H]6OC[C@H](O)[C@H](O[C@H]7OC[C@@H](O)[C@@H](O)[C@@H]7O)[C@H]6O)C(C)(C)[C@H]5CC[C@@]43C)[C@H]2C1,> 100
9,C=C1CC[C@]2(C(=O)O)CC[C@]3(C)C(=CC[C@@H]4[C@@]5(C)CC[C@H](O[C@@H]6OC[C@H](O)[C@H](O)[C@H]6O[C@@H]6O[C@@H](C)[C@H](O)[C@@H](O)[C@H]6O)C(C)(C)[C@@H]5CC[C@]43C)[C@@H]2C1,18.5
10,C[C@@H]1O[C@@H](O[C@@H]2[C@@H](O[C@H]3CC[C@]4(C)[C@H]5CC=C6[C@@H]7C[C@H](CO)CC[C@]7(C(=O)O[C@H]7O[C@@H](CO[C@@H]8O[C@H](CO)[C@@H](O[C@@H]9O[C@@H](C)[C@H](O)[C@@H](O)[C@H]9O)[C@H](O)[C@H]8O)[C@H](O)[C@@H](O)[C@@H]7O)CC[C@@]6(C)[C@]5(C)CC[C@H]4C3(C)C)OC[C@@H](O)[C@H]2O)[C@H](O)[C@H](O)[C@H]1O,> 100
11,C[C@]12C[C@@H](O)[C@H](O)[C@](C)(CO)[C@@H]1CC[C@]1(C)[C@@H]2CC=C2[C@@H]3C[C@](C)(C(=O)O)[C@@H](O)C[C@]3(C(=O)O)CC[C@]21C,> 100
